The subject of test [1] is Streptococcus mutans. Kind of test: MIC microdilution assay. It counts as cell-based. Particulars: for MIC of Goldenseal Alkaloids Against Selected Oral Pathogens: Sm; for MIC: Streptococcus mutans. In general terms: In broth dilution the organism is exposed to a series of concentrations in liquid medium.
Test [2] relates to Streptococcus gordonii. Kind of test: MIC microdilution assay. It counts as cell-based. Conditions: for MIC of Goldenseal Alkaloids Against Selected Oral Pathogens: Sg; for MIC: Streptococcus gordonii.
In test [3] the test system is Actinobacillus actinomycetemcomitans. Kind of test: MIC microdilution assay. In kind it is cell-based. Particulars: for MIC of Goldenseal Alkaloids Against Selected Oral Pathogens: Aa; for MIC: Aggregatibacter actinomycetemcomitans.
The subject of test [4] is Fusobacterium nucleatum. Kind of test: MIC microdilution assay. In kind it is cell-based. Conditions: for MIC of Goldenseal Alkaloids Against Selected Oral Pathogens: Fn; for MIC: Fusobacterium nucleatum.
Test [5] has as its system Porphymonas gingivalis. Kind of test: MIC microdilution assay. Particulars: for MIC of Goldenseal Alkaloids Against Selected Oral Pathogens: Pg; for MIC: Porphyromonas gingivalis. In kind it is cell-based.
Test [6] deals with S. aureus, E. coli, P. aeruginosa, and S. sanguis. Particulars: isolated from H. canadensis; cited from earlier work.
The next test relates to test bacteria. Kind of test: MIC microdilution assay, statements on all test bacteria. It counts as cell-based. Particulars: read-out: Concentration without growth inhibition of the test bacteria (MIC bound).
The test system of test [7] is Escherichia coli. Kind of test: MIC microdilution assay. It counts as cell-based. Conditions: E. coli, agent alone, read-out: MIC of the antimicrobial agents alone.
Test [8] concerns Staphylococcus aureus. Kind of test: MIC microdilution assay. It counts as cell-based. Particulars: S. aureus, agent alone, read-out: MIC of the antimicrobial agents alone.
The test system of test [9] is Streptococcus mutans. Kind of test: Combination determination (FIC, MIC in combination). In kind it is cell-based. Conditions: S. mutans; berberine (B-CG) combined with CHX, Tet or Dox; MIC of the named agent in the combination. As for the experimental part: (§1) The alkaloids were tested in pair-wise combinations (fractional inhibitory concentrations, FIC) against all the bacteria to determine whether interactions were antagonistic (FIC>1), additive (0.5<FIC<1), or synergistic (FIC<0.5). The FIC was calculated by the following: (MIC Acombination/MIC Aalone)+(MIC Bcombination/MIC Balone). Where A represents compound 1 and B represents compound 2. […] In the case of A. actinomycetemcomitans and P. aeruginosa, CHX was used at 0.78 to 50 μg ml^−1. Berberine (B-CG and B-S) was used at concentrations 0.9 to 250 μg ml^−1. The antibacterial efficacy of berberine (1.95 to 500 μg ml^−1) was tested in combination against P. aeruginosa with CHX (0.78 to 50 μg ml^−1) (Sigma Chemicals) and the polymyxin antibiotic Col (0.04 to 25 μg ml^−1) (Sigma Chemicals). The plates were incubated for 24 hours.
CHX was diluted from left to right at 10 to 0.08 μg ml^−1 ([…] 1 to 8), berberine was diluted from top to bottom at 250 to 0.09 μg ml^−1 ([…] 1 to 8). Column 9 was the cell control, column 10 was berberine alone (250 to 0.09 μg ml^−1); and column 11 was CHX alone (10 to 0.08 μg ml^−1). Row H was the solvent control (8% DMSO, H1 to H8). Column 12 was the media blank. The dilution assay was designed such that A1 contained the highest concentration of both agents (berberine 250 μg ml^−1 and CHX 10 μg ml^−1). The final concentration of berberine in wells A2 to A8 was […]. The FIC value was calculated from well C6. FIC was calculated by: (MIC Acombination/MIC Aalone)+(MIC Bcombination/MIC Balone).

The test system of test [10] is Actinobacillus actinomycetemcomitans. Described as above. It counts as cell-based. Particulars: A. actinomycetemcomitans grown under anaerobic conditions; berberine (B-CG) combined with CHX, Tet or Dox; MIC of the named agent in the combination. As for the experimental part:
as §1

Test [11] relates to Escherichia coli. Described as above. Conditions: E. coli. In kind it is cell-based. As for the experimental part:
as §1

Test [12] concerns Fusobacterium nucleatum. The test is described as above. It counts as cell-based. Particulars: F. nucleatum; berberine (B-CG) combined with CHX, Tet or Dox; MIC of the named agent in the combination. As for the experimental part: as §1
The test system of test [13] is Porphymonas gingivalis. Described as above. It counts as cell-based. Conditions: P. gingivalis; berberine (B-CG) combined with CHX, Tet or Dox; MIC of the named agent in the combination. As for the experimental part: as §1
For test [14], the system named is Staphylococcus aureus. The description is as above. It counts as cell-based. Conditions: S. aureus. As for the experimental part: as §1
Test [15] deals with Streptococcus gordonii. The test is described as above. In kind it is cell-based. Conditions: S. gordonii; berberine (B-CG) combined with CHX, Tet or Dox; MIC of the named agent in the combination. As for the experimental part:
as §1

For the next test, the system named is oral pathogens. Kind of test: Combination determination, statements on the oral pathogens. It counts as cell-based. Particulars: berberine hydrochloride / berberine (B-CG and B-S). How it is done:
as §1

Test [16] concerns Pseudomonas aeruginosa. Kind of test: MIC microdilution assay. In kind it is cell-based. Conditions: P. aeruginosa; agent alone.
For test [17], the system named is Pseudomonas aeruginosa. Kind of test: Combination determination (FIC, MIC in combination). It counts as cell-based. Conditions: P. aeruginosa. As for the experimental part: as §1
The mark [18] stands for this setting: read-out: MIC of Goldenseal Alkaloids Against Selected Oral Pathogens.
The mark [19] stands for this setting: berberine (B-CG) combined with CHX, Tet or Dox, MIC of the named agent in the combination.
The mark [20] stands for this setting: berberine hydrochloride / chloride.

Structures can show the parent of a compound that is named as a salt. Where two headings read alike, the source gives them in different places. Marks after values point to notes of the source that are not given here.

For `COc1ccc(C[C@@H]2c3cc4c(cc3CCN2C)OCO4)c(C=O)c1OC` [Canadaline, canadaline], the “MIC of Goldenseal Alkaloids Against Selected Oral Pathogens” value (in the test on Streptococcus mutans [1] (S. mutans); in the test on Streptococcus gordonii [2] (S. gordonii); in test [3] (A. actinomycetemcomitans); with Fusobacterium nucleatum [4] (F. nucleatum); in the test with Porphymonas gingivalis [5] (P. gingivalis)) was greater than 250 µg/mL throughout. Further, in [6], the Antibacterial activity result is “antimicrobial at comparable concentrations to berberine”.

For the molecule `COc1ccc2c(c1OC)CN1CCc3cc4c(cc3[C@@H]1C2)OCO4` [Canadine, canadine], the MIC in the test on Streptococcus mutans [1] (setting [18]) was greater than 500 µg/mL; in the test with Streptococcus gordonii [2] (setting [18]), greater than 500 µg/mL; in [3] (setting [18]), greater than 500 µg/mL; in the test with Fusobacterium nucleatum [4] (setting [18]), greater than 500 µg/mL; in the test with Porphymonas gingivalis [5] (setting [18]), greater than 500 µg/mL; with test bacteria, greater than 250 µg/mL. The Antibacterial activity result in test [6] was “antimicrobial at comparable concentrations to berberine”.

For the molecule `COc1ccc2c(c1OC)C(=O)O[C@@H]2[C@H]1c2cc3c(cc2CCN1C)OCO3` [Hydrastine, hydrastine], the MIC (with Streptococcus mutans [1] (setting [18]); in the test on Streptococcus gordonii [2] (setting [18]); in test [3] (setting [18]); in the test with Fusobacterium nucleatum [4] (setting [18]); with Porphymonas gingivalis [5] (setting [18]); with test bacteria) was greater than 500 µg/mL throughout.

On to `COc1cc2c(cc1O)[C@@H]1Cc3ccc(OC)c(OC)c3CN1CC2` [Isocorypalamine, isocorypalmine], for which the “MIC of Goldenseal Alkaloids Against Selected Oral Pathogens” value (in the test with Streptococcus mutans [1] (S. mutans); in the test on Streptococcus gordonii [2] (S. gordonii); in test [3] (A. actinomycetemcomitans); in the test with Fusobacterium nucleatum [4] (F. nucleatum); with Porphymonas gingivalis [5] (P. gingivalis)) was greater than 125 µg/mL each time.

For `CN(C)[C@@H]1C(O)=C(C(N)=O)C(=O)[C@@]2(O)C(O)=C3C(=O)c4c(O)cccc4[C@@](C)(O)[C@H]3C[C@@H]12` [Tet, tetracycline HCl], the MIC in the test on Streptococcus mutans [1] (S. mutans, agent alone, read-out: MIC of the antimicrobial agents alone) was 1.56 µg/mL; in the test on Streptococcus gordonii [2] (S. gordonii, agent alone, read-out: MIC of the antimicrobial agents alone), 0.31 µg/mL; in test [3] (A. actinomycetemcomitans grown under anaerobic conditions, agent alone, read-out: MIC of the antimicrobial agents alone), 25 µg/mL; in the test on Fusobacterium nucleatum [4] (F. nucleatum, agent alone, read-out: MIC of the antimicrobial agents alone) it was 0.16 µg/mL; in the test on Porphymonas gingivalis [5] (P. gingivalis, agent alone, read-out: MIC of the antimicrobial agents alone) it was 0.08 µg/mL; in the test with Escherichia coli [7], 3.06 µg/mL. The MIC with Staphylococcus aureus [8] was 1.53 µg/mL. The “MIC of the antimicrobial agents in combination” value (from here on “MIC … in combination”) in the test on Streptococcus mutans [9] is 0.20 µg/mL; in [10] it was 12.5** μg ml^−1; in the test on Escherichia coli [11] (setting [19]) it was 1.53 µg/mL; in the test on Fusobacterium nucleatum [12], 0.02 µg/mL; in the test with Porphymonas gingivalis [13], 0.01 µg/mL; in the test on Staphylococcus aureus [14] (setting [19]) it was 0.39 µg/mL. Moreover, in the test on Streptococcus gordonii [15], the “MIC … in combination” value was 0.08 µg/mL. Moreover, the “Growth inhibition effect when combined with berberine” value in the test with Escherichia coli [11] (setting [20]), in the test on Staphylococcus aureus [14] (setting [20]) and in the test with oral pathogens was “synergistic” throughout.

As for `COc1ccc2cc3[n+](cc2c1O)CCc1cc2c(cc1-3)OCO2` [berberrubine], the “Concentration without growth inhibition (MIC bound)” value in the test on Streptococcus mutans [1] (S. mutans, growth hindered, but not inhibited at lower concentrations) is on record as “greater than 300 μml^−1”. Also, the MIC in the test on Streptococcus mutans [1] (S. mutans, growth limited but not inhibited at lower concentrations, text b118, read-out: Concentration without growth inhibition (MIC bound)) was greater than 300 µg/mL; in test [3] (A. actinomycetemcomitans, read-out: Concentration without growth inhibition (MIC bound)), greater than 300 µg/mL; with Porphymonas gingivalis [5] (P. gingivalis, comparable to berberine, read-out: MIC), 17 µg/mL. Further, in test [3] (A. actinomycetecomitans), the “Concentration without antimicrobial activity (MIC bound)” value is no less than 300 μml^−1.

Consider `COc1ccc2c(c1OC)C(=O)O[C@@H]2[C@H]1c2cc3c(cc2CCN1C)OCO3` [β-hydrastine], for which the Antibacterial activity entry in test [6] is “inactive against all the tested organisms”.

For the molecule colistin sulfate, the “MIC of the antimicrobial agents alone” value in the test with Pseudomonas aeruginosa [16] is 3.13 µg/mL. The “Interaction when combined with berberine” value with Pseudomonas aeruginosa [17] is listed as “no clear additive or synergistic effect”. In addition, the “MIC … in combination” value in the test with Pseudomonas aeruginosa [17] (berberine combined with CHX or Col, MIC of the named agent in the combination) amounted to 1.56 µg/mL.

The record behind these values is patent US20070098649A1, “Method and composition for controlling oral pathogens” (priority 2004, published 2007).
